# Test system: 435261-313-R-J1-PDC complex spheroid viability
# Assay: Anticancer human tumor 435261-313-R-J1-PDC patient-derived colon adenocarcinoma cell line growth inhibition [GQUAD]
# Conditions: for IC50: curve of first compound; for viability, T/C: stronger effect = lower value
# In short: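 Viability of tumor cells grown as complex spheroids with endothelial and stromal cells, exposed to drug combinations. Top concentration at or near clinical Cmax (else 10 microM), diluted in half-log increments.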
# [1] = second compound 0.0316 µM, first compound 0.0316 µM
# [2] = second compound 0.0316 µM, first compound 0.1 µM
# [3] = second compound 0.0316 µM, first compound 0.316 µM
# [4] = second compound 0.0316 µM, first compound 1 µM
# [5] = second compound 0.0316 µM, first compound 3.16 µM
# [6] = second compound 0.0316 µM, first compound 10 µM
# [7] = second compound 0.1 µM, first compound 0.0316 µM
# [8] = second compound 0.1 µM, first compound 0.1 µM
# [9] = second compound 0.1 µM, first compound 0.316 µM
# [10] = second compound 0.1 µM, first compound 1 µM
# [11] = second compound 0.1 µM, first compound 3.16 µM
# [12] = second compound 0.1 µM, first compound 10 µM
# [13] = second compound 0.316 µM, first compound 0.0316 µM
# [14] = second compound 0.316 µM, first compound 0.1 µM
# [15] = second compound 0.316 µM, first compound 0.316 µM
# [16] = second compound 0.316 µM, first compound 1 µM
# [17] = second compound 0.316 µM, first compound 3.16 µM
# [18] = second compound 0.316 µM, first compound 10 µM
# [19] = second compound 1 µM, first compound 0.0316 µM
# [20] = second compound 1 µM, first compound 0.1 µM
# [21] = second compound 1 µM, first compound 0.316 µM
# [22] = second compound 1 µM, first compound 1 µM
# [23] = second compound 1 µM, first compound 3.16 µM
# [24] = second compound 1 µM, first compound 10 µM
# [25] = second compound 3.16 µM, first compound 0.0316 µM
# [26] = second compound 3.16 µM, first compound 0.1 µM
# [27] = second compound 3.16 µM, first compound 0.316 µM
# [28] = second compound 3.16 µM, first compound 1 µM
# [29] = second compound 3.16 µM, first compound 3.16 µM
# [30] = second compound 3.16 µM, first compound 10 µM
# [31] = second compound 10 µM, first compound 0.0316 µM
# [32] = second compound 10 µM, first compound 0.1 µM
# [33] = second compound 10 µM, first compound 0.316 µM
# [34] = second compound 10 µM, first compound 1 µM
# [35] = second compound 10 µM, first compound 3.16 µM
# [36] = second compound 10 µM, first compound 10 µM
# 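Also: spheroids exposed to the agents for seven days before readout.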
# 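For viability, T/C in this document: percent of vehicle control viability with DMSO wells as 100%.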
compound,measurement,setting,value
CCCS(=O)(=O)Nc1ccc(F)c(C(=O)c2c[nH]c3ncc(-c4ccc(Cl)cc4)cc23)c1F + Cc1[nH]c2ccc(F)cc2c1-c1nc2c3cccnc3c3ncccc3c2[nH]1,IC50,second compound 0.0316 µM,5.2 µM
same,IC50,second compound 0.1 µM,4.08 µM
same,IC50,second compound 0.316 µM,4.06 µM
same,IC50,second compound 1 µM,3.25 µM
same,IC50,second compound 3.16 µM,< 0.0316 µM
same,IC50,second compound 10 µM,< 0.0316 µM
same,"viability, T/C",[1],77.2%
same,"viability, T/C",[2],87.3%
same,"viability, T/C",[3],109%
same,"viability, T/C",[4],115%
same,"viability, T/C",[5],78.5%
same,"viability, T/C",[6],12.7%
same,"viability, T/C",[7],60.5%
same,"viability, T/C",[8],105%
same,"viability, T/C",[9],116%
same,"viability, T/C",[10],70.9%
same,"viability, T/C",[11],62.2%
same,"viability, T/C",[12],15.5%
same,"viability, T/C",[13],66.5%
same,"viability, T/C",[14],73.7%
same,"viability, T/C",[15],76.7%
same,"viability, T/C",[16],70%
same,"viability, T/C",[17],59.9%
same,"viability, T/C",[18],14%
same,"viability, T/C",[19],41.2%
same,"viability, T/C",[20],70%
same,"viability, T/C",[21],40.5%
same,"viability, T/C",[22],55.5%
same,"viability, T/C",[23],50.8%
same,"viability, T/C",[24],11.7%
same,"viability, T/C",[25],30.2%
same,"viability, T/C",[26],29.2%
same,"viability, T/C",[27],24.5%
same,"viability, T/C",[28],19.6%
same,"viability, T/C",[29],28.4%
same,"viability, T/C",[30],7.37%
same,"viability, T/C",[31],27.2%
same,"viability, T/C",[32],23%
same,"viability, T/C",[33],24.6%
same,"viability, T/C",[34],27.1%
same,"viability, T/C",[35],26.1%
same,"viability, T/C",[36],8.52%
O=c1[nH]cc(F)c(=O)[nH]1 + CN(C)c1ccc(Nc2c3ccc(NC(=O)CCN4CCCC4)cc3nc3cc(NC(=O)CCN4CCCC4)ccc23)cc1,IC50,second compound 0.0316 µM,> 10 µM
same,IC50,second compound 0.1 µM,> 10 µM
same,IC50,second compound 0.316 µM,> 10 µM
same,IC50,second compound 1 µM,> 10 µM
same,IC50,second compound 3.16 µM,> 10 µM
same,IC50,second compound 10 µM,< 0.0316 µM
same,"viability, T/C",[1],118%
same,"viability, T/C",[2],102%
same,"viability, T/C",[3],105%
same,"viability, T/C",[4],90.8%
same,"viability, T/C",[5],71.6%
same,"viability, T/C",[6],99.9%
same,"viability, T/C",[7],117%
same,"viability, T/C",[8],114%
same,"viability, T/C",[9],126%
same,"viability, T/C",[10],86.8%
same,"viability, T/C",[11],86.9%
same,"viability, T/C",[12],78.6%
same,"viability, T/C",[13],104%
same,"viability, T/C",[14],103%
same,"viability, T/C",[15],87.4%
same,"viability, T/C",[16],97.2%
same,"viability, T/C",[17],111%
same,"viability, T/C",[18],85.8%
same,"viability, T/C",[19],118%
same,"viability, T/C",[20],91.8%
same,"viability, T/C",[21],98.5%
same,"viability, T/C",[22],104%
same,"viability, T/C",[23],81.8%
same,"viability, T/C",[24],73.5%
same,"viability, T/C",[25],73.3%
same,"viability, T/C",[26],78.1%
same,"viability, T/C",[27],73.4%
same,"viability, T/C",[28],63.3%
same,"viability, T/C",[29],70.2%
same,"viability, T/C",[30],60.4%
same,"viability, T/C",[31],29.4%
same,"viability, T/C",[32],66%
same,"viability, T/C",[33],41.8%
same,"viability, T/C",[34],40%
same,"viability, T/C",[35],43.3%
same,"viability, T/C",[36],31.4%
CC[C@@]1(O)C(=O)OCc2c1cc1n(c2=O)Cc2cc3c(CN(C)C)c(O)ccc3nc2-1 + CN(C)c1ccc(Nc2c3ccc(NC(=O)CCN4CCCC4)cc3nc3cc(NC(=O)CCN4CCCC4)ccc23)cc1,IC50,second compound 0.0316 µM,> 0.316 µM
same,IC50,second compound 0.1 µM,> 0.316 µM
same,IC50,second compound 0.316 µM,> 0.316 µM
same,IC50,second compound 1 µM,> 0.316 µM
same,IC50,second compound 3.16 µM,0.0725 µM
same,IC50,second compound 10 µM,< 0.000999 µM
same,"viability, T/C","second compound 0.0316 µM, first compound 0.000999 µM",110%
same,"viability, T/C","second compound 0.0316 µM, first compound 0.00316 µM",96.6%
same,"viability, T/C","second compound 0.0316 µM, first compound 0.00999 µM",116%
same,"viability, T/C",[1],87.2%
same,"viability, T/C","second compound 0.0316 µM, first compound 0.0999 µM",67.5%
same,"viability, T/C",[3],88.7%
same,"viability, T/C","second compound 0.1 µM, first compound 0.000999 µM",119%
same,"viability, T/C","second compound 0.1 µM, first compound 0.00316 µM",111%
same,"viability, T/C","second compound 0.1 µM, first compound 0.00999 µM",101%
same,"viability, T/C",[7],84.6%
same,"viability, T/C","second compound 0.1 µM, first compound 0.0999 µM",76.1%
same,"viability, T/C",[9],77.2%
same,"viability, T/C","second compound 0.316 µM, first compound 0.000999 µM",108%
same,"viability, T/C","second compound 0.316 µM, first compound 0.00316 µM",99.6%
same,"viability, T/C","second compound 0.316 µM, first compound 0.00999 µM",87.5%
same,"viability, T/C",[13],64.2%
same,"viability, T/C","second compound 0.316 µM, first compound 0.0999 µM",73.7%
same,"viability, T/C",[15],74.2%
same,"viability, T/C","second compound 1 µM, first compound 0.000999 µM",88.4%
same,"viability, T/C","second compound 1 µM, first compound 0.00316 µM",99.3%
same,"viability, T/C","second compound 1 µM, first compound 0.00999 µM",87.8%
same,"viability, T/C",[19],81.5%
same,"viability, T/C","second compound 1 µM, first compound 0.0999 µM",82.3%
same,"viability, T/C",[21],84.1%
same,"viability, T/C","second compound 3.16 µM, first compound 0.000999 µM",75.2%
same,"viability, T/C","second compound 3.16 µM, first compound 0.00316 µM",62.8%
same,"viability, T/C","second compound 3.16 µM, first compound 0.00999 µM",78.6%
same,"viability, T/C",[25],63.4%
same,"viability, T/C","second compound 3.16 µM, first compound 0.0999 µM",45.3%
same,"viability, T/C",[27],44.3%
same,"viability, T/C","second compound 10 µM, first compound 0.000999 µM",39.9%
same,"viability, T/C","second compound 10 µM, first compound 0.00316 µM",40.5%
same,"viability, T/C","second compound 10 µM, first compound 0.00999 µM",33.6%
same,"viability, T/C",[31],36.5%
same,"viability, T/C","second compound 10 µM, first compound 0.0999 µM",29.8%
same,"viability, T/C",[33],22%

# From PubChem BioAssay AID2060494 (Molecular Pharmacology Branch, DTP, NCI, 2025)
